Data as given in PMC10691883, “Efficient One-Pot Synthesis of Novel Caffeic Acid Derivatives as Potential Antimalarials” (Journal of Parasitology Research, 2023).

Test system: P. falciparum D10 (CQ-sensitive) strain
Assay: P. falciparum drug susceptibility assay (pLDH), CQ-sensitive strain D10
Format: cell-based
Details: IC50(NHDF)/IC50(D10)
Procedure: (§1) P. falciparum cultures were prepared and maintained according to the method of Trager and Jensen, with slight modifications. […] Serial dilutions of the compounds were prepared in 96-well flat-bottomed microplates. […] Parasite growth was determined spectrophotometrically (OD650) by measuring the activity of parasite lactate dehydrogenase (pLDH), according to a modified version of the method of Makler and Hinrichs, in control and compound-treated cultures.

SMILES	SID10
CCN(CC)CCCC(C)Nc1ccnc2cc(Cl)ccc12 (centres unmarked) [CQ, chloroquine, reference compound]	2047.5
CC(C)(C)OC(=O)/C=C/c1ccc(O)cc1O [Compound 1, tert-Butyl (2E)-3-(2,4-Dihydroxyphenyl)-propenoate]	8.73
CCOC(=O)/C=C/c1ccc(O)c(O)c1O [Compound 2, Ethyl (2E)-3-(2,3,4-Trihydroxyphenyl)-propenoate]	2.74
CCOC(=O)/C(C)=C/c1ccc(O)c(O)c1O [Compound 3, Ethyl (2E)-3-(2,3,4-Trihydroxyphenyl)-2-methylpropenoate]	6.23
CC(C)(C)OC(=O)/C=C/c1ccc(O)c(O)c1O [Compound 4, tert-Butyl (2E)-3-(2,3,4-Trihydroxyphenyl)-propenoate]	7.42
CC(C)(C)OC(=O)/C=C/c1ccc(O)c(F)c1 [Compound 6, tert-Butyl (2E)-3-(3-Fluoro-4-hydroxyphenyl)-propenoate]	1.77

Same assay, conditions: Plasmodium falciparum, D10, 72 h, read-out: P. falciparum IC50 D10

SMILES	IC50 [µM]
CCN(CC)CCCC(C)Nc1ccnc2cc(Cl)ccc12 (centres unmarked) [CQ, chloroquine, reference compound]	0.02 ± 0.01

Same assay, conditions: Plasmodium falciparum; D10 CQ-sensitive strain, 72 h, pLDH, mean ± SD; read-out: P. falciparum IC50 D10

SMILES	IC50 [µM]
O=C(O)/C=C/c1ccc(O)c(O)c1 [CA, (E)-3-(3,4-dihydroxyphenyl)prop-2-enoic acid, reference compound]	> 278
CC(C)(C)OC(=O)/C=C/c1ccc(O)cc1O [Compound 1, tert-Butyl (2E)-3-(2,4-Dihydroxyphenyl)-propenoate]	28.6 ± 1.94
CCOC(=O)/C=C/c1ccc(O)c(O)c1O [Compound 2, Ethyl (2E)-3-(2,3,4-Trihydroxyphenyl)-propenoate]	42.1 ± 9.12
CCOC(=O)/C(C)=C/c1ccc(O)c(O)c1O [Compound 3, Ethyl (2E)-3-(2,3,4-Trihydroxyphenyl)-2-methylpropenoate]	12.7 ± 2.33
CC(C)(C)OC(=O)/C=C/c1ccc(O)c(O)c1O [Compound 4, tert-Butyl (2E)-3-(2,3,4-Trihydroxyphenyl)-propenoate]	12.2 ± 4.9
CCOC(=O)/C(C)=C/c1ccc(O)c(F)c1 [Compound 5, Ethyl (2E)-3-(3-Fluoro-4-hydroxyphenyl)-2-methylpropenoate]	145 ± 53.6
CC(C)(C)OC(=O)/C=C/c1ccc(O)c(F)c1 [Compound 6, tert-Butyl (2E)-3-(3-Fluoro-4-hydroxyphenyl)-propenoate]	129 ± 59.6

Same assay, conditions: Plasmodium falciparum; strain not given (D10 and/or W2); read-out: P. falciparum IC50

SMILES	IC50 [µM]
CCOC(=O)/C(C)=C/c1ccc(O)c(O)c1O [Compound 3, Ethyl (2E)-3-(2,3,4-Trihydroxyphenyl)-2-methylpropenoate]	11 to 12.7
CC(C)(C)OC(=O)/C=C/c1ccc(O)c(O)c1O [Compound 4, tert-Butyl (2E)-3-(2,3,4-Trihydroxyphenyl)-propenoate]	11 to 12.7
CCOC(=O)/C(C)=C/c1ccc(O)c(F)c1 [Compound 5, Ethyl (2E)-3-(3-Fluoro-4-hydroxyphenyl)-2-methylpropenoate]	117
CC(C)(C)OC(=O)/C=C/c1ccc(O)c(F)c1 [Compound 6, tert-Butyl (2E)-3-(3-Fluoro-4-hydroxyphenyl)-propenoate]	145

Test system: P. falciparum W2 (CQ-resistant) strain
Assay: P. falciparum drug susceptibility assay (pLDH), CQ-resistant strain W2
Format: cell-based
Details: CQ-resistant strain, 4 compared with 1
Procedure: as §1

SMILES	fold decrease of IC50 versus compound 1 [times]
CC(C)(C)OC(=O)/C=C/c1ccc(O)c(O)c1O [Compound 4, tert-Butyl (2E)-3-(2,3,4-Trihydroxyphenyl)-propenoate]	7.9

Same assay, conditions: IC50(NHDF)/IC50(W2)

SMILES	SIW2
CCN(CC)CCCC(C)Nc1ccnc2cc(Cl)ccc12 (centres unmarked) [CQ, chloroquine, reference compound]	178.04
CC(C)(C)OC(=O)/C=C/c1ccc(O)cc1O [Compound 1, tert-Butyl (2E)-3-(2,4-Dihydroxyphenyl)-propenoate]	2.89
CCOC(=O)/C=C/c1ccc(O)c(O)c1O [Compound 2, Ethyl (2E)-3-(2,3,4-Trihydroxyphenyl)-propenoate]	2.98
CCOC(=O)/C(C)=C/c1ccc(O)c(O)c1O [Compound 3, Ethyl (2E)-3-(2,3,4-Trihydroxyphenyl)-2-methylpropenoate]	7.02
CC(C)(C)OC(=O)/C=C/c1ccc(O)c(O)c1O [Compound 4, tert-Butyl (2E)-3-(2,3,4-Trihydroxyphenyl)-propenoate]	8.24
CC(C)(C)OC(=O)/C=C/c1ccc(O)c(F)c1 [Compound 6, tert-Butyl (2E)-3-(3-Fluoro-4-hydroxyphenyl)-propenoate]	1.95

Same assay, conditions: Plasmodium falciparum, W2, 72 h, read-out: P. falciparum IC50 W2

SMILES	IC50 [µM]
CCN(CC)CCCC(C)Nc1ccnc2cc(Cl)ccc12 (centres unmarked) [CQ, chloroquine, reference compound]	0.23 ± 0.08

Same assay, conditions: Plasmodium falciparum; W2 CQ-resistant strain, 72 h, pLDH, mean ± SD; read-out: P. falciparum IC50 W2

SMILES	IC50 [µM]
O=C(O)/C=C/c1ccc(O)c(O)c1 [CA, (E)-3-(3,4-dihydroxyphenyl)prop-2-enoic acid, reference compound]	> 278
CC(C)(C)OC(=O)/C=C/c1ccc(O)cc1O [Compound 1, tert-Butyl (2E)-3-(2,4-Dihydroxyphenyl)-propenoate]	86.4 ± 27.4
CCOC(=O)/C=C/c1ccc(O)c(O)c1O [Compound 2, Ethyl (2E)-3-(2,3,4-Trihydroxyphenyl)-propenoate]	38.8 ± 17.8
CCOC(=O)/C(C)=C/c1ccc(O)c(O)c1O [Compound 3, Ethyl (2E)-3-(2,3,4-Trihydroxyphenyl)-2-methylpropenoate]	11.3 ± 4.81
CC(C)(C)OC(=O)/C=C/c1ccc(O)c(O)c1O [Compound 4, tert-Butyl (2E)-3-(2,3,4-Trihydroxyphenyl)-propenoate]	11 ± 4.88
CCOC(=O)/C(C)=C/c1ccc(O)c(F)c1 [Compound 5, Ethyl (2E)-3-(3-Fluoro-4-hydroxyphenyl)-2-methylpropenoate]	131 ± 52.7
CC(C)(C)OC(=O)/C=C/c1ccc(O)c(F)c1 [Compound 6, tert-Butyl (2E)-3-(3-Fluoro-4-hydroxyphenyl)-propenoate]	117 ± 35.9

Same assay, conditions: ratio IC50 W2 / IC50 D10

SMILES	RI (resistance index)
CC(C)(C)OC(=O)/C=C/c1ccc(O)cc1O [Compound 1, tert-Butyl (2E)-3-(2,4-Dihydroxyphenyl)-propenoate]	3.02

Test system: not listed separately
Assay: MTT cytotoxicity assay on NHDF cells
Format: cell-based
Details: human, NHDF cells (normal human dermal fibroblasts)
Procedure: NHDF cells were grown in alpha-MEM medium supplemented likewise with 10% FBS, L-glutamine, and antibiotic-antimycotic. Cultures were maintained at 37°C, in a humidified Innova CO-180 incubator (New Brunswick Scientific, Edison, NJ, USA) in an atmosphere containing 5% CO2. The cytotoxic effects of CA derivatives were evaluated as described in literature using the standard MTT assay. Briefly, NHDF cells were seeded in a 96-well plate at a density of 5 × 10^3 cells per well in an alpha-MEM medium. Cells were grown overnight and subsequently exposed to the different concentrations of tested compounds dissolved in DMSO. An equivalent volume of DMSO was used as a negative control. After 72 h of incubation, media containing the test compounds were removed, the cells were washed with sterile PBS, and 50 μL of MTT solution (0.5 mg/mL stock solution was 10 times diluted in the appropriate culture medium) was added to each well for 3 h at 37°C. Subsequently, the MTT solution was removed, the formazan crystals were solubilized in DMSO, and absorbance was recorded using an Asys UVM 340 multiwell plate reader (Cambridge, UK) at 560 nm with a reference wavelength of 670 nm. The % of cell viability was calculated using the following formula: Cell viability (%) = (AT/AC) × 100, where AT is the absorbance of the treatment well (treated cells) and AC is the absorbance of the control well (not treated cells). GraphPad Prism software for Windows (GraphPad Software, La Jolla, CA, USA) was used to calculate IC50 values.

SMILES	IC50 at 72 h [µM]
CC(C)(C)OC(=O)/C=C/c1ccc(O)cc1O [Compound 1, tert-Butyl (2E)-3-(2,4-Dihydroxyphenyl)-propenoate]	249.8 ± 0.51
CCOC(=O)/C=C/c1ccc(O)c(O)c1O [Compound 2, Ethyl (2E)-3-(2,3,4-Trihydroxyphenyl)-propenoate]	115 ± 1.76
CCOC(=O)/C(C)=C/c1ccc(O)c(O)c1O [Compound 3, Ethyl (2E)-3-(2,3,4-Trihydroxyphenyl)-2-methylpropenoate]	79.2 ± 6.14
CC(C)(C)OC(=O)/C=C/c1ccc(O)c(O)c1O [Compound 4, tert-Butyl (2E)-3-(2,3,4-Trihydroxyphenyl)-propenoate]	90.3 ± 10.3
CC(C)(C)OC(=O)/C=C/c1ccc(O)c(F)c1 [Compound 6, tert-Butyl (2E)-3-(3-Fluoro-4-hydroxyphenyl)-propenoate]	229 ± 7.57

Test system: not listed separately
Assay: Hemolytic activity against human erythrocytes
Format: cell-based
Details: freshly isolated human red blood cells (erythrocytes), PBS, 37°C
Procedure: Hemolytic activity was measured as described by Jaromin et al. Compounds 3 and 4, dissolved in DMSO, were added in a volume corresponding to a final concentration of 12.5 μM and then incubated with freshly isolated human red blood cells in PBS buffer at 37°C for 30 min. After centrifugation, the absorbance was determined at 540 nm, to assess the released hemoglobin. In addition, negative (erythrocytes in PBS buffer), positive (erythrocytes in distilled water), and DMSO controls were also performed. The study protocol was approved by the Bioethics Commission at the Lower Silesian Medical Chamber (1/PNHAB/2018).

SMILES	hemolysis at 30 min, 12.5 µM [%]
CCOC(=O)/C(C)=C/c1ccc(O)c(O)c1O [Compound 3, Ethyl (2E)-3-(2,3,4-Trihydroxyphenyl)-2-methylpropenoate]	4.13 ± 0.85
CC(C)(C)OC(=O)/C=C/c1ccc(O)c(O)c1O [Compound 4, tert-Butyl (2E)-3-(2,3,4-Trihydroxyphenyl)-propenoate]	52.9 ± 2.93

Test system: not given
Assay: not given
Details: not given

SMILES	melting point [°C]
CCOC(=O)/C=C/c1ccc(O)c(O)c1O [Compound 2, Ethyl (2E)-3-(2,3,4-Trihydroxyphenyl)-propenoate]	172 to 173
CCOC(=O)/C(C)=C/c1ccc(O)c(O)c1O [Compound 3, Ethyl (2E)-3-(2,3,4-Trihydroxyphenyl)-2-methylpropenoate]	140
CC(C)(C)OC(=O)/C=C/c1ccc(O)c(O)c1O [Compound 4, tert-Butyl (2E)-3-(2,3,4-Trihydroxyphenyl)-propenoate]	175
CC(C)(C)OC(=O)/C=C/c1ccc(O)c(F)c1 [Compound 6, tert-Butyl (2E)-3-(3-Fluoro-4-hydroxyphenyl)-propenoate]	88.3

Test system: P. berghei
Assay: not given
Design: method as in PMID 30033538
Details: 100 mg/kg, in vivo; cited from earlier work

SMILES	P. berghei inhibition growth [%]
CCOC(=O)/C=C/c1ccc(O)c(O)c1 [Ethyl caffeate]	55

Test system: NHDF cells (normal human dermal fibroblasts)
Assay: not given
Details: read-out: Cytotoxicity IC50, MTT; cited from earlier work

SMILES	IC50 [µM]
CCN(CC)CCCC(C)Nc1ccnc2cc(Cl)ccc12 (centres unmarked) [CQ, chloroquine, reference compound]	41 ± 2.29
